Data taken from PubChem BioAssay AID652006 (Sanford-Burnham Center for Chemical Genomics, 2013).
Activity calls are given as the source filed them.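 How the source made its calls: active means compounds that inhibit the LYP-1 phosphatase with IC50 at or below 20 µM; inactive means the rest.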

Biological target: Tyrosine-protein phosphatase non-receptor type 22 (Homo sapiens) (UniProt Q9Y2R2)
Test: LYP phosphatase inhibition for selectivity, dose response, selectivity assay for LMPTP inhibitor project, biochemical, fluorescence, LYP catalytic domain (AID 652006)
Settings: His-LYP catalytic domain, OMFP fluorescence, 50 min

Chain of Tyrosine-protein phosphatase non-receptor type 22 (Homo sapiens) (Q9Y2R2 whole entry, looked up, the tested form may be a part): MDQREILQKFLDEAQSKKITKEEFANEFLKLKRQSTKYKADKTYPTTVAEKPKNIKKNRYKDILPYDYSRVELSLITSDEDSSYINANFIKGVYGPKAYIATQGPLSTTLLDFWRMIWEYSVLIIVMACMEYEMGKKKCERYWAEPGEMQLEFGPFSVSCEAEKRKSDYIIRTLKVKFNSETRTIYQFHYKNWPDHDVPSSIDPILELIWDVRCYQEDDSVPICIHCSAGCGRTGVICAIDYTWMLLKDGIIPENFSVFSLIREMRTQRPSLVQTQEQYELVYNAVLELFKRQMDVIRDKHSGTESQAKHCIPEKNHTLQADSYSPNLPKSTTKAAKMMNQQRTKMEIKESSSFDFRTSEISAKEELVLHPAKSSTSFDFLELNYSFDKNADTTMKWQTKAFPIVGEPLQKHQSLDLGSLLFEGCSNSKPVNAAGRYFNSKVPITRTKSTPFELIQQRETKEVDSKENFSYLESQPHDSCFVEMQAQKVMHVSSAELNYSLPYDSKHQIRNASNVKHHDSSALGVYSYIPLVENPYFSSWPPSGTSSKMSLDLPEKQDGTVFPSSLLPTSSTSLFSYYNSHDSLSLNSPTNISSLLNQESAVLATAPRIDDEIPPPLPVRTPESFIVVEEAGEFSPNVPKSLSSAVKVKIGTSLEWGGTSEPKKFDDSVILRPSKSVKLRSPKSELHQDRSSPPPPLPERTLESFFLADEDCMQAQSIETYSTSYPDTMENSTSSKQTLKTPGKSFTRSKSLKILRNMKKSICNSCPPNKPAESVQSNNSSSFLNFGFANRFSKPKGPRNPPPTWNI

With `Clc1cccc(Cl)c1Cn1cnc(=NCc2ccco2)c2[nH]cnc21` the IC50 was > 80 µM (inactive).
